The results in this text go back to patent US5220029A, “Synthetic proteolytic substrate” (Vitek Systems, Inc., priority 1990, dated 1993).

In experiment [1] the test system is trypsin. As to the kind of experiment: Continuous assay for trypsin (saturation kinetics), color development by DMAB/ferricyanide at 590 nm. Type of experiment: biochemical. The conditions noted are these: 1 μg trypsin, 0.14M Tris pH 7.8, substrate 1.74×10^-3, 5.8×10^-4 and 3.9×10^-4 M in triplicate. The source says:
(§1) The invention may be more thoroughly understood by reference to the included examples which describe the synthesis of amides of the type RCO-MBTH (Examples 1-15) and a continuous enzyme assay (Example 16). A disconintuous assay is illustrated in Example 17. Example 18 is a determination of the kinetic catalytic constant (kc) and binding constant (Km) for trypsin-catalyzed hydrolysis of an RCO-MBTH substrate by the continuous assay method.
Saturation kinetics for N-(N-benzyloxycarbonyl)glycyl-L-prolyl-L-arginyl 3-methyl-2-benzothiazolinone hydrazone with trypsin
A continuous assay for trypsin was performed, i.e., the oxidizing and coupling reagents for color development were included with the substrate in the reaction mixture so that color development may be monitored on a continuous basis with time. In this example the dye precursor is developed to a dye without destroying the enzymatic activity of the enzyme. The reaction was initiated by the addition of 0.1 mL of enzyme (10 μg/mL) to 0.9 mL of buffer solution containing substrate (Z-GLY-PRO-ARG-MBTH) and color developing reagents. […] The increases in absorbance at 590 nm were monitored continuously for 5 minutes and the initial rates determined. Using the molar absorptivity of 57,000 for the chromogen produced (MBTH-DMAB), the average rate of hydrolysis was calculated to be 4.43+0.1×10^-6 mol min^-1.

Experiment [2] relates to trypsin. As to the kind of experiment: Determination of kinetic constants for the trypsin catalyzed hydrolysis (continuous assay). Type of experiment: biochemical. The conditions noted are these: triplicate.
From the text: as §1
Determination of the Kinetic Constants for the Trypsin Catalyzed Hydrolysis of N-(N-t-butoxycarbonyl)-L-Arginyl 3-methyl benzothiazolinone hydrazone (continuous assay)
In a one-cm. cuvette were mixed 3.0 mL of 0.02M tris buffer, pH 7.8, containing 0.02M 3-dimethylamino benzoic acid (DMAB) 0.1 mL of 0.065M potassium ferricyanide, and 0.1 mL of substrate (Boc-ARG-MBTH). The reaction was initiated by the addition of 0.1 mL of trypsin (2.33×10^-4 M in 0.1M pyrophosphate buffer, pH 8.3). Eight concentrations of substrate, from 9.98×10^-4 M to 7.8×10^-6 M, were assayed in triplicate. The increase in absorption at 590 nm was monitored continuously and the initial rates were determined. Under the conditions of the assay, a molar absorptivity of 57,000 was used to determine the concentration of the chromogen (MBTH-DMAB) produced by the hydrolysis of substrate. Table I contains the date used to determine the binding and kinetic constants (Km, kc).

Where “and” joins values, the source holds several entries; their conditions need not be identical. Equal entries are not always repeated.

As for `Cn1c(=NNC(=O)[C@H](CCCNC(=N)N)NC(=O)[C@@H]2CCCN2C(=O)CNC(=O)OCc2ccccc2)sc2ccccc21` [Z-GLY-PRO-ARG-MBTH, N-(N-benzyloxycarbonyl)glycyl-L-prolyl-L-arginyl 3-methyl-2-benzothiazolinone hydrazone], the “average rate of hydrolysis” value with trypsin [1] is 4.43+0.1×10^-6 mol min^-1.
With `Cn1c(=NNC(=O)[C@H](CCCNC(=N)N)NC(=O)OC(C)(C)C)sc2ccccc21` [Boc-ARG-MBTH, N-(N-t-butoxycarbonyl)-L-Arginyl 3-methyl benzothiazolinone hydrazone], the 1/V with trypsin [2] (1/s 100 M^-1) is 0.000565 min/M and 0.000528 min/M and 0.000625 min/M; with trypsin [2] (1/s 200 M^-1), 0.000699 min/M and 0.000742 min/M; in the experiment with trypsin [2] (1/s 401 M^-1) it was 0.000766 min/M and 0.00088 min/M and 0.000819 min/M; with trypsin [2] (1/s 802 M^-1) it was 0.001033 min/M and 0.00108 min/M and 0.001188 min/M; in the experiment on trypsin [2] (1/s 1603 M^-1), 0.001697 min/M and 0.001827 min/M; in the experiment with trypsin [2] (1/s 2305 M^-1), 0.002969 min/M and 0.003393 min/M. The 1/V was 0.005056 min/M and 0.00528 min/M in the experiment on trypsin [2] (1/s 6413 M^-1); 0.009901 min/M and 0.009506 min/M in the experiment on trypsin [2] (1/s 12826 M^-1).
